In US20230117034A1, “PYRAZOLOTRIAZINES” (Bayer Aktiengesellschaft, priority 2019, published 2023):

Key:
[1] = biological target: T1, CDK2/CycE (Homo sapiens, UniProt P24941); test: CDK2/CycE kinase assay (TR-FRET, 2 mM ATP); assay type: biochemical; conditions: 2 mM ATP (high ATP); median; read-out: CDK2/CyclinE, 2 mM ATP (high ATP), IC50 (median)
T1 construct: purchased ProQinase GmbH (Freiburg, Germany); host or cells: insect cells (Sf9)
How it was run: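 Biotin-peptide phosphorylation (0.75 µM substrate, 2 mM ATP final, 25 min, 22 °C) by Sf9-expressed GST-CDK2/GST-CycE, after a 15-min compound pre-binding step. Inhibition scaled between enzyme-free (100%) and uninhibited (0%) wells.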

[2] = test system: CAL-120, human breast adenocarcinoma cells; test: Proliferation assay CAL-120 (crystal violet, 4 days); assay type: cell-based; conditions: Homo sapiens, CAL-120, 96 h, CAL-120 cells, median, read-out: Prolif-CAL-120, IC50-[mol/l] (median)
How it was run: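 Growth was measured by crystal violet staining after cells had been treated with compounds (0.01-10 µmol/L, 0.1% DMSO) for 4 days, beginning 24 h after seeding. Values were normalized to a zero-point plate and to untreated controls, and IC50 values were derived by a four-parameter fit.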

[3] = biological target: T2, CYCLIN K (nuclear staining in CAL-120 cells) (Homo sapiens, UniProt O75909); test: CYCLIN K nuclear protein level: immunofluorescence high content analysis (CAL-120); assay type: cell-based; conditions: 24 h, 50% reduction of nuclear CCNK staining intensity, median, read-out: CYCLIN K degradation IF, DC50-[mol/l] (median)
T2 construct: endogenous in cells; host or cells: CAL-120 human breast cancer cells (DSMZ ACC 459)
Method: 8. CYCLIN K nuclear protein level: immunofluorescence High Content Analysis
CAL-120 human breast cancer cells (DSMZ ACC 459) are seeded in 1536-well microtiter plates (800 cells per well) containing 50 nanoL of compounds in Dose-Response. Control wells received DMSO or Example 4. Plates are then incubated for 24 h at 37° C. in an humidified incubator and fixed with 4% PFA for 10 min. Then immunofluorescence (IF) against CYCLIN K (ThermoFisher Scientific CONK Antibody #PA5-85020, rabbit, 1:200 dilution) is performed using standard IF protocols. Cells are then stained with Hoechst 33342 (Life Technologies, H-1399, 0.1 microg/ml) and imaged on an automated confocal microscopy system (e.g. Perkin Elmer Opera Phenix). Nuclear and cytoplasmic intensity as well as the nuclear/cytoplasmic intensity ratio is determined by automated image analysis using custom generated scripts (MetaXpress). Data is then transferred to Genedata Screener software, normalized to DMSO and control and DC50 values (degrading concentration to achieve 50% reduction of nuclear CCNK staining intensity relative to controls) are reported.

T2 sequence (O75909 whole entry): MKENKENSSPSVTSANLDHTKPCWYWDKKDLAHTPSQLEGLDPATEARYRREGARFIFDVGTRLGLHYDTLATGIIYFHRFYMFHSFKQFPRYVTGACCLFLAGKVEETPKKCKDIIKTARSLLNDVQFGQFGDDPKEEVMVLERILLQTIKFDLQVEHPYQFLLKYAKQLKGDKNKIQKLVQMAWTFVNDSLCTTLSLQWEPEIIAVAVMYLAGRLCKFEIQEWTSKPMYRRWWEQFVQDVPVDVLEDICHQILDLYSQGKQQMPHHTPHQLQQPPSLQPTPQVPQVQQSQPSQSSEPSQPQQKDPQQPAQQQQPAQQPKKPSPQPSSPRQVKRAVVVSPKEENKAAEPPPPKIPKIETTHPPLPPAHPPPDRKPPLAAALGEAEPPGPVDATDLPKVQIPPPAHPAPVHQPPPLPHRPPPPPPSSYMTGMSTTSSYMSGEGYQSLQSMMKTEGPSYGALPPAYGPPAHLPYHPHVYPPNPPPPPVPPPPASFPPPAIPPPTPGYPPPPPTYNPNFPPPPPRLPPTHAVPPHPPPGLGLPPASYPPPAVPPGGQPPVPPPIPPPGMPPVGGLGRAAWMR
T2 sequence (Q9NYV4 whole entry partner): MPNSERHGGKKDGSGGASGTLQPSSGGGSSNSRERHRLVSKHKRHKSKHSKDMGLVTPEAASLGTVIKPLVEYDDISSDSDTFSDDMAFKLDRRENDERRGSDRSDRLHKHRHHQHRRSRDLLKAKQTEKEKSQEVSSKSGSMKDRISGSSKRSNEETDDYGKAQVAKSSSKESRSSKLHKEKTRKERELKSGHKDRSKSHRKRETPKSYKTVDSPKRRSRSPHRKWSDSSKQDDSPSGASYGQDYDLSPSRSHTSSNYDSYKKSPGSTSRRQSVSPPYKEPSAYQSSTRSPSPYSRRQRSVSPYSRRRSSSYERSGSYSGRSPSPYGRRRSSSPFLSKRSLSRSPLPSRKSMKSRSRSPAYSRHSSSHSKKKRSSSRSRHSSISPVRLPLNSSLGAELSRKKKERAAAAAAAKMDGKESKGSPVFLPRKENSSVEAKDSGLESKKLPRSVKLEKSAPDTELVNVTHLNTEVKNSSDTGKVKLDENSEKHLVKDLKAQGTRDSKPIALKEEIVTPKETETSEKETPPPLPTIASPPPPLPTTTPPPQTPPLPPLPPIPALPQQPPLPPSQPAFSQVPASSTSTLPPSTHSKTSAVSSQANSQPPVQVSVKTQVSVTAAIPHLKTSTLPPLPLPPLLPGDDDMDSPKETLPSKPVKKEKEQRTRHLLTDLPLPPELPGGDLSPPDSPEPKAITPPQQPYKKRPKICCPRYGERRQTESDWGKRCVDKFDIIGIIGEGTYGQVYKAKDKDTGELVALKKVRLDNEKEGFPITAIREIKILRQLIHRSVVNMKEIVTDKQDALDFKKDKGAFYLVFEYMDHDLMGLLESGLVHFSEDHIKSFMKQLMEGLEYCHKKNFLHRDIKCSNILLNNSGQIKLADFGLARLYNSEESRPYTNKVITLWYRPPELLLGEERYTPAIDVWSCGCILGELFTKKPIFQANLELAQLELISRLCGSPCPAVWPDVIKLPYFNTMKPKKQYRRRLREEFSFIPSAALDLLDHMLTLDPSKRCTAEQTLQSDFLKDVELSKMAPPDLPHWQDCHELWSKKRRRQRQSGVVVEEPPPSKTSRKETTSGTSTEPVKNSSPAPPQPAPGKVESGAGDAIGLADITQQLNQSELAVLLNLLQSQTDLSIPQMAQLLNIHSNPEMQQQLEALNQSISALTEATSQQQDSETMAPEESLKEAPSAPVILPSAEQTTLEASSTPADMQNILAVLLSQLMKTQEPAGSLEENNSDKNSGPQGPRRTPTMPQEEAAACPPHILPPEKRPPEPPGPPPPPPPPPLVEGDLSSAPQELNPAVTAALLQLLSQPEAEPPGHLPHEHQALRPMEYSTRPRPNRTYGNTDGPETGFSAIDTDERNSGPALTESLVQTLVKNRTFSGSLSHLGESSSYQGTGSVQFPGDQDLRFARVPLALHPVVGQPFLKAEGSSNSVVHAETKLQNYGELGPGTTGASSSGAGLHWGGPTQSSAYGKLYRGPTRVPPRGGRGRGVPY

SMILES | IC50 [1] [nM] | IC50 [2] [nM] | DC50 [3] [nM]
C[C@@H]1CN(c2nc(NCc3nnc(-c4ccccc4)[nH]3)n3ncc(Br)c3n2)C[C@H](C)N1C [Example 125, 8-bromo-N-[(5-phenyl-4H-1,2,4-triazol-3-yl)methyl]-2-[(3R,5S)-3,4,5-trimethylpiperazin-1-yl]pyrazolo[1,5-a][1,3,5]triazin-4-amine] | 13200 | 53.1 | 1.2
C[C@@H]1CN(c2nc(NCc3nnc(-c4ccccc4)[nH]3)n3ncc(Br)c3n2)CCN1C.O=CO [Example 130, 8-bromo-2-[(3R)-3,4-dimethylpiperazin-1-yl]-N-[(5-phenyl-4H-1,2,4-triazol-3-yl)methyl]pyrazolo[1,5-a][1,3,5]triazin-4-amine formate] | 8150 | 34.8 | 2.01
C[C@H]1CN(c2nc(NCc3nc4ccccc4[nH]3)n3ncc(Br)c3n2)CCN1C [Example 132, N-[(1H-benzimidazol-2-yl)methyl]-8-bromo-2-[(3S)-3,4-dimethylpiperazin-1-yl]pyrazolo[1,5-a][1,3,5]triazin-4-amine] | 7430 | 43.4 | 2.22
CN1CCN(c2nc(NCc3nc4c(F)c(F)ccc4[nH]3)n3ncc(Br)c3n2)CC1 [Example 133, 8-bromo-N-[(4,5-difluoro-1H-benzimidazol-2-yl)methyl]-2-(4-methylpiperazin-1-yl)pyrazolo[1,5-a][1,3,5]triazin-4-amine] | 15100 | 4.41 | 0.0633
CN1CCN(c2nc(NCc3nc4cc(F)ccc4[nH]3)n3ncc(Br)c3n2)CC1 [Example 134, 8-bromo-N-[(5-fluoro-1H-benzimidazol-2-yl)methyl]-2-(4-methylpiperazin-1-yl)pyrazolo[1,5-a][1,3,5]triazin-4-amine] | 12000 | 11.6 | 0.172
C[C@H]1CCCCN1c1nc(NCc2nc3ccccc3[nH]2)n2ncc(Br)c2n1 [Example 141, N-[(1H-benzimidazol-2-yl)methyl]-8-bromo-2-[(2S)-2-methylpiperidin-1-yl]pyrazolo[1,5-a][1,3,5]triazin-4-amine] | 707 | 24.5 | 1.74
C[C@@H]1CN(c2nc(NCc3nc4ccccc4[nH]3)n3ncc(Br)c3n2)C[C@H](C)N1 [Example 142, N-(1H-benzimidazol-2-ylmethyl)-8-bromo-2-[(3R,5S)-3,5-dimethylpiperazin-1-yl]pyrazolo[1,5-a][1,3,5]triazin-4-amine] | > 19800 | 11.3 | 0.163
Brc1cnn2c(NCc3nc4ccccc4[nH]3)nc(N3C[C@@H]4CCCN[C@@H]4C3)nc12 [Example 146, N-[(1H-benzimidazol-2-yl)methyl]-8-bromo-2-[(4aS,7aS)-octahydro-6H-pyrrolo[3,4-b]pyridin-6-yl]pyrazolo[1,5-a][1,3,5]triazin-4-amine] | 7110 | 31 | 0.56
Brc1cnn2c(NCc3nc4ccccc4[nH]3)nc(N3CCN4CCC[C@H]4C3)nc12 [Example 148, N-[(1H-benzimidazol-2-yl)methyl]-8-bromo-2-[(8aS)-hexahydropyrrolo[1,2-a]pyrazin-2 (1 H)-yl]pyrazolo[1,5-a][1,3,5]triazin-4-amine] | 12600 | 109 | 8.06
Cc1cccc2[nH]c(CNc3nc(N4CCN(C)CC4)nc4c(Br)cnn34)nc12 [Example 151, 8-bromo-N-[(4-methyl-1H-benzimidazol-2-yl)methyl]-2-(4-methylpiperazin-1-yl)pyrazolo[1,5-a][1,3,5]triazin-4-amine] | 13400 | 24.7 | 2.45
Fc1cccc(-c2nnc(CNc3nc(N4CCNCC4)nc4c(Br)cnn34)[nH]2)c1 [Example 152, 8-bromo-N-{[5-(3-fluorophenyl)-4H-1,2,4-triazol-3-yl]methyl}-2-(piperazin-1-yl)pyrazolo[1,5-a][1,3,5]triazin-4-amine] | 5420 | 3.86 | 1.11
Fc1cccc(-c2nnc(CNc3nc(N4C[C@H]5C[C@@H]4CO5)nc4c(Br)cnn34)[nH]2)c1 [Example 153, 8-bromo-N-{[5-(3-fluorophenyl)-4H-1,2,4-triazol-3-yl]methyl}-2-[(1R,4R)-2-oxa-5-azabicyclo[2.2.1]heptan-5-yl]pyrazolo[1,5-a][1,3,5]triazin-4-amine] | 1700 | 5.78 | 1.42
C[C@H]1CN(c2nc(NCc3nnc(-c4cccc(F)c4)[nH]3)n3ncc(Br)c3n2)CCN1C [Example 154, 8-bromo-2-[(3S)-3,4-dimethylpiperazin-1-yl]-N-{[5-(3-fluorophenyl)-4H-1,2,4-triazol-3-yl]methyl}pyrazolo[1,5-a][1,3,5]triazin-4-amine] | 4470 | 7.69 | 0.713
Cc1ccc2[nH]c(CNc3nc(N4CCOCC4)nc4c(Br)cnn34)nc2c1 [Example 157, 8-bromo-N-[(5-methyl-1H-benzimidazol-2-yl)methyl]-2-(morpholin-4-yl)pyrazolo[1,5-a][1,3,5]triazin-4-amine] | 3020 | 1.78 | 0.119

Results, then the compound that gave them:

IC50 [1] [nM] | IC50 [2] [nM] | DC50 [3] [nM] | SMILES
5990 | 11 | 0.142 | CN1CCN(c2nc(NCc3nc4c(F)cccc4[nH]3)n3ncc(Br)c3n2)CC1 [Example 126, 8-bromo-N-[(4-fluoro-1H-benzimidazol-2-yl)methyl]-2-(4-methylpiperazin-1-yl)pyrazolo[1,5-a][1,3,5]triazin-4-amine]
> 20000 | 28.2 | 2.77 | C[C@@H]1CN(c2nc(NCc3nnc(-c4ccccc4)[nH]3)n3ncc(Br)c3n2)C[C@H](C)N1 [Example 127, 8-bromo-2-[(3R,5S)-3,5-dimethylpiperazin-1-yl]-N-[(5-phenyl-4H-1,2,4-triazol-3-yl)methyl]pyrazolo[1,5-a][1,3,5]triazin-4-amine]
9630 | 12.7 | 0.216 | Brc1cnn2c(NCc3nc4ccccc4[nH]3)nc(N3CCNCC3)nc12 [Example 128, N-[(1H-benzimidazol-2-yl)methyl]-8-bromo-2-(piperazin-1-yl)pyrazolo[1,5-a][1,3,5]triazin-4-amine]
> 20000 | 125 | 3.39 | C[C@@H]1CN(c2nc(NCc3nc4ccccc4[nH]3)n3ncc(Br)c3n2)C[C@H](C)N1C [Example 129, N-(1H-benzimidazol-2-ylmethyl)-8-bromo-2-[(3R,5S)-3,4,5-trimethylpiperazin-1-yl]pyrazolo[1,5-a][1,3,5]triazin-4-amine]
7750 | 41.7 | 0.554 | C[C@@H]1CN(c2nc(NCc3nc4ccccc4[nH]3)n3ncc(Br)c3n2)CCN1C [Example 135, N-[(1H-benzimidazol-2-yl)methyl]-8-bromo-2-[(3R)-3,4-dimethylpiperazin-1-yl]pyrazolo[1,5-a][1,3,5]triazin-4-amine]
3450 | 17.1 | 0.464 | CN1CCN(c2nc(NCc3nnc(-c4cccc(F)c4)[nH]3)n3ncc(Br)c3n2)CC1 [Example 136, 8-bromo-N-{[5-(3-fluorophenyl)-4H-1,2,4-triazol-3-yl]methyl}-2-(4-methylpiperazin-1-yl)pyrazolo[1,5-a][1,3,5]triazin-4-amine]
4360 | 18.3 | 1.48 | Cc1cccc2[nH]c(CNc3nc(N4CCOCC4)nc4c(Br)cnn34)nc12 [Example 150, 8-bromo-N-[(4-methyl-1H-benzimidazol-2-yl)methyl]-2-(morpholin-4-yl)pyrazolo[1,5-a][1,3,5]triazin-4-amine]
3480 | 5.45 | 0.249 | CC1CN(C)CCN1c1nc(NCc2nc3ccccc3[nH]2)n2ncc(Br)c2n1 (stereo not drawn) [Example 156, N-(1H-benzimidazol-2-ylmethyl)-8-bromo-2-(2,4-dimethylpiperazin-1-yl)pyrazolo[1,5-a][1,3,5]triazin-4-amine]
5300 | 1.17 | 0.367 | Cc1ccc2[nH]c(CNc3nc(N4CCN(C)CC4)nc4c(Br)cnn34)nc2c1 [Example 158, 8-bromo-N-[(5-methyl-1H-benzimidazol-2-yl)methyl]-2-(4-methylpiperazin-1-yl)pyrazolo[1,5-a][1,3,5]triazin-4-amine]
